We go through six compounds from the supplement of paper PMC12076712.

Holding throughout (experiment): pIC50, kinobeads binding competition
For one test, the target named is T1, TAOK1 (UniProt Q7L7X3).
T1 sequence (whole entry): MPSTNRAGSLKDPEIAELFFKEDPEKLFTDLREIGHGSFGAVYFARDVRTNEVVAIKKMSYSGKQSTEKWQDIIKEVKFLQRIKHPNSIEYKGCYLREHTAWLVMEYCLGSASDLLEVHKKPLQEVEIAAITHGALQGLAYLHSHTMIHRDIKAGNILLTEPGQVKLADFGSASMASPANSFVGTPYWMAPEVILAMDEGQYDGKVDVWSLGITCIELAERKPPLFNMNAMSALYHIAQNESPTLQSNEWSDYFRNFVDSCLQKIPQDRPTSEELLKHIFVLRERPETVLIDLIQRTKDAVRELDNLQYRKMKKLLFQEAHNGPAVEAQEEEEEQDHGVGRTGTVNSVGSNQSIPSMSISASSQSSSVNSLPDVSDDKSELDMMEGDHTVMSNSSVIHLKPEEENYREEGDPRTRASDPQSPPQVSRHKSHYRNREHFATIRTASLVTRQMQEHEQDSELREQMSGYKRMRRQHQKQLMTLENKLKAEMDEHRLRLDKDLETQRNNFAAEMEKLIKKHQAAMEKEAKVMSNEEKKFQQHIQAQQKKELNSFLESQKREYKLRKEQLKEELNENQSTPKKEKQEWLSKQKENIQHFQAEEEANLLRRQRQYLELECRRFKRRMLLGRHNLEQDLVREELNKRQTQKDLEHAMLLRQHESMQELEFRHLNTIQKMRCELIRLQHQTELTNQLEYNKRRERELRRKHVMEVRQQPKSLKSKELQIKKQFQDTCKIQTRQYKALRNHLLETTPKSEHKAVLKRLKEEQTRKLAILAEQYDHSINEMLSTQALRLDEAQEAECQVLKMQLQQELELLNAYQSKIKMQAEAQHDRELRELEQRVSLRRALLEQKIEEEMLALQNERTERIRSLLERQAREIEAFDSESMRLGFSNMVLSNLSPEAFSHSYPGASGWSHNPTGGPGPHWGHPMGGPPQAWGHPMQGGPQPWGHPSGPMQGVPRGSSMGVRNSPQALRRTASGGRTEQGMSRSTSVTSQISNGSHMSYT
In a few lines:
(§1)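 Live Jurkat cells were treated with nine compound concentrations (top 30 μM, 1:4 steps) or DMSO for 60 min at 37 °C before lysis. Alternatively, Jurkat lysate or a 1:1:1:1 HEK293/K-562/HepG2/placenta lysate mix was incubated with nine concentrations (top 30 μM, 1:5 steps) for 60 min at 4 °C. Kinobeads-bound proteins were digested and quantified by TMT10 LC-MS/MS. pIC50 came from logistic dose-response fits (R drc package) of fold changes versus DMSO, in biological duplicates.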

Another test deals with UniProt Q9Y5S2. The following applies: cell material: Lysate mix. In a few lines: as §1
Chain of UniProt Q9Y5S2 (Q9Y5S2 whole entry): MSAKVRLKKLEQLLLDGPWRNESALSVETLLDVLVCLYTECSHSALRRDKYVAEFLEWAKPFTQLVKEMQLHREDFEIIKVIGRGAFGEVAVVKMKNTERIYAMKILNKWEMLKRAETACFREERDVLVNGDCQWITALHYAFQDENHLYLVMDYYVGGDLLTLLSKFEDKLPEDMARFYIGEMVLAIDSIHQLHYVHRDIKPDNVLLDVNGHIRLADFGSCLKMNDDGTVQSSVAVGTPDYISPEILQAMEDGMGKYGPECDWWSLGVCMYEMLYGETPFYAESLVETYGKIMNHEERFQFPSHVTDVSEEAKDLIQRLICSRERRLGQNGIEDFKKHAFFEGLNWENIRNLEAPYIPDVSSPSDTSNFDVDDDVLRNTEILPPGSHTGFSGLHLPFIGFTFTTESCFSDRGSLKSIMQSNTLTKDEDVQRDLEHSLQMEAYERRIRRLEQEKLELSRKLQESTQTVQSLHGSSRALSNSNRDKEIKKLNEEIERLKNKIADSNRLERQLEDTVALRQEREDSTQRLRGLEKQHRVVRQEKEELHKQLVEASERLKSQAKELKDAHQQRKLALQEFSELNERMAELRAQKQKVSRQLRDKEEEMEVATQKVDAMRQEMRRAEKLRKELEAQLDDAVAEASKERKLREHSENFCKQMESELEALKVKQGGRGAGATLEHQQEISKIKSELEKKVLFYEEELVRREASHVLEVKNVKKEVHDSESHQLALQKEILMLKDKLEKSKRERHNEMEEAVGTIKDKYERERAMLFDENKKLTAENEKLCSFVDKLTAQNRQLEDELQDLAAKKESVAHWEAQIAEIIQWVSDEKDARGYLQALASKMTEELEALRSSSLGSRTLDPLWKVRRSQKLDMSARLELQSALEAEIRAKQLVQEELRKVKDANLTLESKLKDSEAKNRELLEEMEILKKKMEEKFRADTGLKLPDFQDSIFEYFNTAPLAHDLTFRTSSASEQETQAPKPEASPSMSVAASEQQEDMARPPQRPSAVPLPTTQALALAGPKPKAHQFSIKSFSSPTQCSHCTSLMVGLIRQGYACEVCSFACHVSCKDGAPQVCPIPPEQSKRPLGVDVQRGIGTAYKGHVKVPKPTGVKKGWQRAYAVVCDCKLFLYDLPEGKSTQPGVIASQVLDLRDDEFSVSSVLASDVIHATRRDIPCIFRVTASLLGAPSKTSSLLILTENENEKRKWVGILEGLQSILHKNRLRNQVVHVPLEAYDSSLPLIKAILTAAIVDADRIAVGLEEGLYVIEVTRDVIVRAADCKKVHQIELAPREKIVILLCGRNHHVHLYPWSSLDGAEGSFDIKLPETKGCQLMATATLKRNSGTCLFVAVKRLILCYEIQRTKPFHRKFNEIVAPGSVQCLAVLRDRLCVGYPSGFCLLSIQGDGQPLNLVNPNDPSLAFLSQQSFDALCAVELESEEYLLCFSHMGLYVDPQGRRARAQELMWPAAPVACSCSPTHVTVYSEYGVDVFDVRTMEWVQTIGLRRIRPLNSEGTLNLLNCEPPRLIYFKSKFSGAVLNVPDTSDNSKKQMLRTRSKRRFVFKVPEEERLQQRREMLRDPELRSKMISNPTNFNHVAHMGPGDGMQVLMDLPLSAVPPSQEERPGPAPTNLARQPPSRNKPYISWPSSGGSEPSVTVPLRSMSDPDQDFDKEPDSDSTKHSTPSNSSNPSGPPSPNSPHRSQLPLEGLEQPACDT
Another test concerns the target PDIK1L (UniProt Q8N165). In a few lines:
as §1

Another test has as its target FGFR3 (UniProt P22607). To be noted: cell material: Lysate mix. In a few lines:
as §1

The target of a further test is T2, BCR (UniProt P11274).
T2 sequence (whole entry): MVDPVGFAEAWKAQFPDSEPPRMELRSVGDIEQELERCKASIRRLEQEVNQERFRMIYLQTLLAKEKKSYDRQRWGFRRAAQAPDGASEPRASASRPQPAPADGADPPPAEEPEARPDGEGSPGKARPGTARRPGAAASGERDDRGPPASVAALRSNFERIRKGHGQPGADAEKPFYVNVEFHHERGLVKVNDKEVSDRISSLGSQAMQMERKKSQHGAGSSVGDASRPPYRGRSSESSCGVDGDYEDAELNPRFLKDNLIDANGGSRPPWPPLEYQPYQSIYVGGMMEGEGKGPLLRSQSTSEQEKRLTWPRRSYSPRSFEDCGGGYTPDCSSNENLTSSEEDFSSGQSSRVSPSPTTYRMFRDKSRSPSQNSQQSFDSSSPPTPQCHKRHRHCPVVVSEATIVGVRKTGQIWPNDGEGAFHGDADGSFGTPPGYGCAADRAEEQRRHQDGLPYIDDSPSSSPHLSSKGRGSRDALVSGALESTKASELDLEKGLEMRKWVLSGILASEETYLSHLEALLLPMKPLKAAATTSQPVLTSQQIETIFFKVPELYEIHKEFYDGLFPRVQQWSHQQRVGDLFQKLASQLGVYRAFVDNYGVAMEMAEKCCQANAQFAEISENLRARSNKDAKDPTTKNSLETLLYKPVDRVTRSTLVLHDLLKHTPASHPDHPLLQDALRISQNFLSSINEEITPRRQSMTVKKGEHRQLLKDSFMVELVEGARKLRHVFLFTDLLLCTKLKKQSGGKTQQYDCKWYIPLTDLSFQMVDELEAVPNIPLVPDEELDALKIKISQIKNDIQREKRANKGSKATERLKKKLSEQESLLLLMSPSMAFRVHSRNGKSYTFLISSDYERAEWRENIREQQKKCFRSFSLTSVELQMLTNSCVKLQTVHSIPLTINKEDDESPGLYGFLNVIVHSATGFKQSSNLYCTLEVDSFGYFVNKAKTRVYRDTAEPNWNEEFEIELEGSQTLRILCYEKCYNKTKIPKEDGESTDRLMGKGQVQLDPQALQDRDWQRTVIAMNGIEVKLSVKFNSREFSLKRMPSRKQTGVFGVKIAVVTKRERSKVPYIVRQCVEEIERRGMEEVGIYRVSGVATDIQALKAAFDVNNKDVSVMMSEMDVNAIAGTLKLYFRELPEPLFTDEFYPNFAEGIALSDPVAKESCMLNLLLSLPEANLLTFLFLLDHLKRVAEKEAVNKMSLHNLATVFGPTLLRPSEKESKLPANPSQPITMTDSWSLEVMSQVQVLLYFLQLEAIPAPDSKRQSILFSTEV
To be noted: cell material: Lysate mix. In a few lines:
as §1

The target in the next test is T3, UniProt P78356.
T3 sequence (whole entry): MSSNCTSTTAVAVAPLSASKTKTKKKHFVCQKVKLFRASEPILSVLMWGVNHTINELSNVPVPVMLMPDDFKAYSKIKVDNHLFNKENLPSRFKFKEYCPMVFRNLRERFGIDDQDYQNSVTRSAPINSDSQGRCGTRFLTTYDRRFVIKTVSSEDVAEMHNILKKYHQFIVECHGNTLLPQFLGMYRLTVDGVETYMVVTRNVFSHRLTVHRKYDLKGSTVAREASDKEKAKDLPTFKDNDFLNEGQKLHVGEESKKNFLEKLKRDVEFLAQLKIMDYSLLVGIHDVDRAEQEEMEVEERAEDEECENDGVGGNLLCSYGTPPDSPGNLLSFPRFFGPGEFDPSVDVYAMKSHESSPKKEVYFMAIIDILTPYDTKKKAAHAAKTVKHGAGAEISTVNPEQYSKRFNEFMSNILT
In a few lines:
as §1

Chain of PDIK1L (Q8N165 whole entry): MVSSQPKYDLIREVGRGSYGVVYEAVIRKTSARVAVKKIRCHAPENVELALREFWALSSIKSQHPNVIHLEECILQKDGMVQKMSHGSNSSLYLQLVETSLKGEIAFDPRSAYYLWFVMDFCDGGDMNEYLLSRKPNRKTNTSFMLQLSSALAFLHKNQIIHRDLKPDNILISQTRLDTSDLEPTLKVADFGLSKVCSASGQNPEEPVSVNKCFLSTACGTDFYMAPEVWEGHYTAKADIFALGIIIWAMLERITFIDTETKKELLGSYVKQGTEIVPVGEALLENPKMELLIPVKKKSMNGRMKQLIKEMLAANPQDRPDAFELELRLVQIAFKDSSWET
Chain of FGFR3 (P22607 whole entry, looked up): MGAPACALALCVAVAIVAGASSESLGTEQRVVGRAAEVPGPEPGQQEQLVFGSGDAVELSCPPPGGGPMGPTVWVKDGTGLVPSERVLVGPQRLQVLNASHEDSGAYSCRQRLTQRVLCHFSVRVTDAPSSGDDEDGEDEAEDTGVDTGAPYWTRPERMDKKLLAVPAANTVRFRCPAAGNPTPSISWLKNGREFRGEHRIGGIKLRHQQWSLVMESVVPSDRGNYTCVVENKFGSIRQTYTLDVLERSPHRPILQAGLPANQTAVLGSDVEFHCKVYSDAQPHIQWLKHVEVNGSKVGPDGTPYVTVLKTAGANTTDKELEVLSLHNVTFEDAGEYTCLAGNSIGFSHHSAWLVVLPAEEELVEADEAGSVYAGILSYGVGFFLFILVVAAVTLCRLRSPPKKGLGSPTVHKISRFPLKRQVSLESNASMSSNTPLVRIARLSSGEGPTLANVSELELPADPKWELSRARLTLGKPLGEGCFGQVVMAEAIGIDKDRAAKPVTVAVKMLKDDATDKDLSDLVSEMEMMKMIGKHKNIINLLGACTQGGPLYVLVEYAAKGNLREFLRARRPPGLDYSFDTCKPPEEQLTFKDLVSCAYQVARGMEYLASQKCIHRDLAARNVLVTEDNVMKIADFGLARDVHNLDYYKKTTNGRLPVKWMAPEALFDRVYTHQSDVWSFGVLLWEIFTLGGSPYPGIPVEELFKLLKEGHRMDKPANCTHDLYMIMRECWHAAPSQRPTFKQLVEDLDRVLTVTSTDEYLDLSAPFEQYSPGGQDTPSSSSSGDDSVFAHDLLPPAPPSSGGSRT

Consider `C#CCNC(=O)c1cc(Nc2cc(C)[nH]n2)nc(N2CCN(Cc3ccc(S(=O)(=O)F)cc3)CC2)n1`, for which the pIC50 on TAOK1 (cell material: Lysate mix) is below 4.52; at UniProt Q9Y5S2 it was below 4.52; at PDIK1L (cell material: Lysate mix) it was 5.14; at FGFR3 it was below 4.52; at BCR it was below 4.52; at UniProt P78356 (cell material: Lysate mix) it was below 4.52.
In the case of `O=C(NCCNC(=O)c1cc(Nc2cc(C3CC3)[nH]n2)nc(N2CCN(Cc3ccc(S(=O)(=O)F)cc3)CC2)n1)OC1CC/C=C/CCC1` (stereo unspecified), the pIC50 was 5.96 on TAOK1 (cell material: Jurkat cells); 5.65 on TAOK1 (cell material: Jurkat lysate); 6.1 at TAOK1 (cell material: Lysate mix); below 4.52 at UniProt Q9Y5S2; 5.43 at PDIK1L (cell material: Jurkat cells); below 4.52 at PDIK1L (cell material: Jurkat lysate). For the same compound, the pIC50 on PDIK1L (cell material: Lysate mix), at FGFR3, on BCR, on UniProt P78356 (cell material: Jurkat lysate) and on UniProt P78356 (cell material: Lysate mix) was below 4.52 in each case.
Consider `CCNC(=O)c1cc(Nc2cc(C3CC3)[nH]n2)nc(N2CCN(Cc3ccc(S(=O)(=O)F)cc3)CC2)n1`, for which the pIC50 on TAOK1 (cell material: Lysate mix) is below 4.52; on UniProt Q9Y5S2 it was below 4.52; on PDIK1L (cell material: Lysate mix), 5.89; on FGFR3, 5.04; at BCR it was below 4.52; on UniProt P78356 (cell material: Lysate mix), below 4.52.
`Cc1cc(Nc2cc(C(=O)NCCNC(=O)OC3CC/C=C/CCC3)nc(N3CCN(Cc4ccc(S(=O)(=O)F)cc4)CC3)n2)n[nH]1` (stereo unspecified): the negative logarithm of the IC50 (pIC50) on TAOK1 (cell material: Lysate mix) is 5.87; on UniProt Q9Y5S2 it was below 4.52; on PDIK1L (cell material: Lysate mix), below 4.52; at FGFR3, below 4.52; on BCR, below 4.52; on UniProt P78356 (cell material: Lysate mix), below 4.52.
Take `CCNC(=O)c1cc(Nc2cc(C)[nH]n2)nc(N2CCN(Cc3ccc(S(=O)(=O)F)cc3)CC2)n1`: the pIC50 at TAOK1 (cell material: Lysate mix) was below 4.52; at UniProt Q9Y5S2, below 4.52; on PDIK1L (cell material: Lysate mix), 5.5; on FGFR3, below 4.52; at BCR, below 4.52; on UniProt P78356 (cell material: Lysate mix), below 4.52.
In the case of `C#CCNC(=O)c1cc(Nc2cc(C3CC3)[nH]n2)nc(N2CCN(Cc3ccc(S(=O)(=O)F)cc3)CC2)n1`, the negative logarithm of the IC50 (pIC50) on TAOK1 (cell material: Jurkat cells) is 5.6; on TAOK1 (cell material: Jurkat lysate), below 4.52; at TAOK1 (cell material: Lysate mix) it was below 4.52; on UniProt Q9Y5S2 it was below 4.52; at PDIK1L (cell material: Jurkat cells), 6.16; on PDIK1L (cell material: Jurkat lysate), 5.61. The pIC50 is 5.64 on PDIK1L (cell material: Lysate mix); below 4.52 on FGFR3; below 4.52 on BCR; below 4.52 at UniProt P78356 (cell material: Jurkat lysate); below 4.52 on UniProt P78356 (cell material: Lysate mix).
